In patent US9688764B2, “Methods of treating breast cancer by administering anti-human prolactin receptor (PRLR) antibodies” (REGENERON PHARMACEUTICALS, INC., priority 2013, dated 2017):
Where two headings read alike, the source gives them in different places.

Assays:
[1] = test system: KG-1 cells; assay: Cytotoxicity (cell viability, CCK8) assay; type: cell-based; conditions: Table 28, 3 days
Protocol: (§1) Next, exemplary anti-IL-4R (H4H083P2) and anti-IL-6R (VV6A9-5) antibodies were conjugated to the cytotoxic drug DM1 and their potency in cytotoxicity assays was evaluated. Briefly, HEK293/IL-4R, Ramos or KG-1 cell lines, as well as HEK293 parental cells were seeded in PDL-coated 96-well plates at 1500 to 10,000 cells per well. ADCs or free DM1 (as the methyl disulfide derivative DM1-SMe) were added to the cells at final concentrations ranging from 300 nM to 15 pM and incubated for 3 days. Cells were incubated with CCK8 (Dojindo, Rockville, Md.) for the final 1-3 hours and the absorbance at 450 nm (OD450) was determined on a Flexstation3 (Molecular Devices, Sunnyvale, Calif.). Background OD450 values from digitonin (40 nM) treated cells were subtracted from all wells and viability was expressed as a percentage of the untreated controls. IC50 values were determined from a four-parameter logistic equation over a 10-point response curve (GraphPad Prism).

[2] = test system: HEK293/IL-4R cells; assay: Cytotoxicity (cell viability, CCK8) assay; type: cell-based; conditions: HEK293/hIL4R; Table 28; 3 days
Protocol: as §1

[3] = test system: Ramos cells; assay: Cytotoxicity (cell viability, CCK8) assay; type: cell-based; conditions: Table 28, 3 days
Protocol: as §1

[4] = test system: HEK293 parental cells; assay: Cytotoxicity (cell viability, CCK8) assay; type: cell-based; conditions: Table 28, 3 days
Protocol: as §1

[5] = test system: HEK293 (293) cells; assay: Cell viability (cell kill) assay; type: cell-based; conditions: 293
In short: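 Anti-PRLR–DM1 ADCs (non-cleavable SMCC linker) or free DM1-SMe, 500 nM to 5 pM for 3 days on parental or hPRLR-overexpressing lines. HEK293: CCK8 OD450; MCF7: Hoechst nuclear counts by imaging.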

[6] = test system: SK-BR-3 cells; assay: Cell viability (cell kill) assay; type: cell-based; conditions: Table 16
[7] = test system: MCF7/hPRLR (MCF7/PRLR) cells; assay: Cell viability (cell kill) assay, nuclear counts; type: cell-based, human
In short: (§2)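 Anti-PRLR ADCs or free DM1-SMe were added at 500 nM to 5 pM final to cells seeded overnight and were incubated 3 days. MCF7 lines were fixed with 4% formaldehyde plus Hoechst 33342, and nuclei were counted by imaging, with digitonin […] background subtracted. Viability was expressed as % of untreated cells, and IC50 was obtained from a 4-parameter fit of a 10-point curve.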

[8] = test system: PC3 cells; assay: Cell viability (cell kill) assay; type: cell-based
In short: (§3)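 PC3 and PC3/hPRLR (lipofection-generated, FACS-enriched for PRLR) cells exposed 3 days to anti-PRLR ADCs or free DM1-SMe, 500 nM to 5 pM. Viability by CCK8 OD450, digitonin background subtracted, as % of untreated; IC50 from four-parameter fit of 10-point curves.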

[9] = test system: MCF7 (MCF7/ATCC) cells; assay: Cell viability (cell kill) assay, nuclear counts; type: cell-based; conditions: MCF7
In short: as §2

[10] = test system: T47D/hErbB2 cells; assay: Cell viability (cell kill) assay; type: cell-based, human; conditions: T47D/ErbB2; Table 16
Excerpt: (§4) PRLR-overexpressing cells, including HEK293, PC3, MCF7 and NCI-N87, were generated to assess the ability of anti-PRLR conjugated antibodies to reduce cell viability. For comparative purposes, PC3 and T47D cells with overexpressed ErbB2 were also generated, as well as an MCF7 cell line over-expressing both hPRLR and hErbB2. Briefly, Lipofectamine® 2000-mediated transfection methodology was utilized to generate HEK293 cells expressing human PRLR (HEK293/hPRLR) or human ErbB2 (HEK293/hErbB2). Lipofectamine LTX with Plus Reagent was used to generate PC3 cells expressing human PRLR (PC3/hPRLR) or human ErbB2 (PC3/hErbB2). Lentiviral-mediated transduction was utilized to generate MCF7 cells expressing human PRLR (MCF7/hPRLR), NCI-N87 cells expressing human PRLR (NCI-N87/hPRLR), T47D cells over-expressing human ErbB2 (T47D/hErbB2), and MCF7 cells expressing both human PRLR and human ErbB2 (MCF7/hPRLR/hErbB2). All lines were selected for at least two weeks in complete growth media plus appropriate selection reagents. Stably expressing populations were enriched for PRLR expression via FACS using the anti PRLR antibody Control I.
(§5) Next, the ability of anti-PRLR-DM1 antibody-drug conjugates (i.e., anti-PRLR antibodies conjugated to DM1 via a non-cleavable linker [SMCC]) to reduce cell viability was determined using in vitro cell based assays. Cells were seeded in PDL-coated 96 well plates at 1500 to 10000 cells per well in complete growth media and allowed to grow overnight. For cell viability curves, ADCs or free DM1 (as the methyl disulfide derivative DM1-SMe) were added to the cells at final concentrations ranging from 500 nM to 5 pM and incubated for 3 days. The 293, PC3 and T47D cells were incubated with CCK8 (Dojindo, Rockville, Md.) for the final 1-3 hours and the absorbance at 450 nm (OD450) was determined on a Flexstation3 (Molecular Devices, Sunnyvale, Calif.). MCF7 cells were treated with Hoechst 33342 nuclear stain while being fixed with 4% formaldehyde. Images were acquired on the ImageXpress micro XL (Molecular Devices, Sunnyvale, Calif.) and nuclear counts were determined via Columbus image analysis software (Perkin Elmer, Shelton, Conn.). Background OD450 values (PC3, 293, and T47D) or nuclear counts (MCF7) from digitonin (40 nM) treated cells was subtracted from all wells and viability was expressed as a percentage of the untreated controls. IC50 values were determined from a four-parameter logistic equation over a 10-point response curve (GraphPad Prism).
(§6) The potency of anti-PRLR conjugated antibodies compared with a similarly conjugated antibody to the co-expressed ErbB2 cell surface target was also assessed. Both PRLR and ErbB2 are expressed in a majority of breast cancers, and anti-ErbB2 antibodies conjugated to DM1 have shown clinical efficacy in targeting ErbB2 (+) breast cancer (Hurvitz et al; 2013).

[11] = test system: HEK293/hErbB2 cells; assay: Cell viability (cell kill) assay; type: cell-based, human; conditions: 293/ErbB2; Table 14
Excerpt: as §4, §5, §6

[12] = test system: MCF7/hPRLR/hErbB2 cells; assay: Cell viability (cell kill) assay; type: cell-based, human; conditions: MCF/PRLR + ErbB2; Table 17
Excerpt: as §4, §5, §6

[13] = test system: NCI-N87/hPRLR cells; assay: Cell viability (cell kill) assay; type: cell-based, human; conditions: NCI-N87/PRLR; Table 17
Excerpt: as §4, §5, §6

[14] = test system: PC3/hErbB2 cells; assay: Cell viability (cell kill) assay; type: cell-based, human; conditions: PC3/ErbB2; Table 15
Excerpt: as §4, §5, §6

[15] = test system: PC3/hPRLR cells; assay: Cell viability (cell kill) assay; type: cell-based, human; conditions: PC3/PRLR
In short: as §3

[16] = test system: HEK293/hPRLR (293/hPRLR) cells; assay: Cell viability (cell kill) assay; type: cell-based, human; conditions: 293/PRLR; for IC50: read-out: IC50
Excerpt: as §4, §5

[17] = test system: NCI-N87 cells; assay: Cell viability (cell kill) assay; type: cell-based; conditions: Table 17
Excerpt: as §4, §5
The potency of anti-PRLR conjugated antibodies compared with a similarly conjugated antibody to the co-expressed ErbB2 cell surface target was also assessed. […]

[18] = test system: T47D cells; assay: Cell viability (cell kill) assay; type: cell-based; conditions: T47D; for IC50: read-out: IC50
In short: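 T47D cells grown overnight, then exposed 3 days to anti-PRLR ADCs (DM1 via non-cleavable SMCC linker, or other maytansinoid toxins) or free DM1-SMe, 500 nM to 5 pM. Viability by CCK8 OD450, digitonin background subtracted, as % of untreated; IC50 from 10-point four-parameter fit. PRL (15 nM) co-incubation tested separately.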

In the case of COc1cc2cc(c1Cl)N(C)C(=O)C[C@H](OC(=O)[C@H](C)N(C)C(=O)CCS)[C@]1(C)O[C@H]1[C@H](C)[C@@H]1C[C@@](O)(NC(=O)O1)[C@H](OC)/C=C/C=C(\C)C2 [DM1 (Free Drug)], the “% Kill” value [1] is reported as 89%, the IC50 [1] is reported as 1.26 nM and the “% Kill” value [2] is reported as 98%. For the same molecule, the IC50 [2] was 0.33 nM, the “% Kill” value [3] was 100% and the IC50 [3] was 0.34 nM. For the same molecule, the “% Kill” value [4] was 100% and the IC50 [4] was 0.27 nM.

With COc1cc2cc(c1Cl)N(C)C(=O)C[C@H](OC(=O)[C@H](C)N(C)C(=O)CCS)[C@]1(C)O[C@H]1[C@H](C)[C@@H]1C[C@@](O)(NC(=O)O1)[C@H](OC)/C=C/C=C(\C)C2 [DM1 (free drug)] the “% Kill” value ([5]; Table 11, 3 days) was 98%, the IC50 ([5]; Table 11, 3 days) was 0.27 nM and the “% Kill” value ([5]; Table 14) was 95%. For the same molecule, the IC50 ([5]; Table 14) was 0.5 nM, the “% Kill” value [6] was 74% and the IC50 [6] was 0.39 nM. The “% Kill” value ([7]; Table 12, 3 days) was 88%, the IC50 ([7]; Table 12, 3 days) was 1.47 nM and the “% Kill” value ([7]; Table 17) was 79%. For the same molecule, the IC50 ([7]; Table 17) was 1.85 nM, the “% Kill” value ([8]; Table 11, 3 days) was 91% and the IC50 ([8]; Table 11, 3 days) was 0.47 nM. The “% Kill” value ([8]; Table 15) was 88%, the IC50 ([8]; Table 15) was 0.44 nM and the “% Kill” value ([9]; Table 12, 3 days) was 83%. The IC50 ([9]; Table 12, 3 days) was 1.17 nM, the “% Kill” value ([9]; Table 16) was 78% and the IC50 ([9]; Table 16) was 0.54 nM. For the same molecule, the “% Kill” value [10] was 71%, the IC50 [10] was 0.18 nM and the “% Kill” value [11] was 100%. For the same molecule, the IC50 [11] was 0.26 nM, the “% Kill” value [12] was 77% and the IC50 [12] was 0.82 nM. For the same molecule, the “% Kill” value [13] was 98%, the IC50 [13] was 1.45 nM and the “% Kill” value [14] was 85%. For the same molecule, the IC50 [14] was 0.42 nM, the “% Kill” value ([15]; Table 11, 3 days) was 80% and the IC50 ([15]; Table 11, 3 days) was 0.59 nM. For the same molecule, the “% Kill” value ([15]; Table 15) was 82%, the IC50 ([15]; Table 15) was 0.24 nM and the “% Kill” value ([16]; Table 11, 3 days) was 97%. The IC50 ([16]; Table 11, 3 days) was 0.36 nM, the “% Kill” value ([16]; Table 14) was 95% and the IC50 ([16]; Table 14) was 0.82 nM. The “% Kill” value [17] was 95%, the IC50 [17] was 0.84 nM and the “% Kill” value ([18]; Table 12, 3 days) was 86%. The IC50 ([18]; Table 12, 3 days) was 0.45 nM, the “% Kill” value ([18]; Table 16) was 80% and the IC50 ([18]; Table 16) was 0.21 nM.
